Patent US8129366B2, “VLA-4 inhibitory drug” (Daiichi Sankyo Company, Limited, priority 2005, dated 2012)
Converted amounts (≈) assume the structure as drawn.

Columns and labels:
[1] = system: eosinophile infiltration in mice actively sensitized with ascaris; test: Test for eosinophile infiltration in mice actively sensitized with ascaris, administered two times a day; assay type: in vivo; settings: orally 5 mg/kg two times a day; for inhibition in vivo at 5 mg/kg: Mus musculus, po, eosinophile count in BALF 48 hours after sensitization vs ascaris-sensitized group, read-out: suppression rate (%); for Average total eosinophile count (×10^5) of (ascaris-sensitized + substance under test) group: BALF 48 hours after sensitization
Description: Test for eosinophile infiltration in mice actively sensitized with ascaris (antigen to pig roundworm):
It has been reported that infiltration of eosinophilic cells is induced by active sensitization with ascaris {Int. Arch. Immuno., 108, 11-18 (1995)}. An evaluation of the compounds under test was performed according to the evaluation method described herein. The substance under test was orally administered in an amount of 5 mg/kg, two times a day. The total cell count and the eosinophile count in BALF of 48 hours after sensitization were calculated, and the effects were determined by comparing with the group not administered with the substance under test.

hα4 and β1 integrins = target: T1, hα4 and β1 integrins (Homo sapiens, UniProt P05556+P13612); test: In vitro inhibition of binding between CHO cells expressing hα4 and β1 integrins and Eu3+-hVCAM-1 D1D7-IgG; settings: for Ki: CHO cells expressing hα4 and β1 integrins, Eu3+-hVCAM-1 D1D7-IgG ligand, without HSA; for IC50: in the presence of 3% human serum albumin (HSA final concentration 3%)
T1 construct: expressed in transfected cells; host or cells: CHO cells
Procedure, shortened: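 Transfected CHO cells, cultured 2 days, were incubated with compound and Eu³⁺-hVCAM-1 D1D7-IgG (diluted to 2 nM) for 1 h at room temperature. Buffer was 25 mM HEPES pH 7.5 with 1 mM Ca²⁺, 1 mM Mg²⁺, 4 mM Mn²⁺ and 0.1% BSA, ±3% HSA final. Cells were washed at 4 °C and read by DELFIA time-resolved fluorescence; Ki was derived from IC50 using the Scatchard Kd.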

[2] = Solubility test in first and second liquid of the Japanese Pharmacopoeia; settings: Solubility
Description: The solubilities of the substance under test in the first liquid (JP1, pH=1.2) of the Japanese Pharmacopoeia and the second liquid (JP2, pH=6.8) of the Japanese Pharmacopoeia, were evaluated.

[3] = first liquid of the Japanese Pharmacopoeia (JP1), pH 1.2, simulated gastric fluid, First liquid of Japanese Pharmacopoeia (μg/mL), JP1, pH=1.2
[4] = second liquid of the Japanese Pharmacopoeia (JP2), pH 6.8, aqueous buffer, Second liquid of Japanese Pharmacopoeia (μg/mL), JP2, pH=6.8

T1 sequence (P13612 34-1032): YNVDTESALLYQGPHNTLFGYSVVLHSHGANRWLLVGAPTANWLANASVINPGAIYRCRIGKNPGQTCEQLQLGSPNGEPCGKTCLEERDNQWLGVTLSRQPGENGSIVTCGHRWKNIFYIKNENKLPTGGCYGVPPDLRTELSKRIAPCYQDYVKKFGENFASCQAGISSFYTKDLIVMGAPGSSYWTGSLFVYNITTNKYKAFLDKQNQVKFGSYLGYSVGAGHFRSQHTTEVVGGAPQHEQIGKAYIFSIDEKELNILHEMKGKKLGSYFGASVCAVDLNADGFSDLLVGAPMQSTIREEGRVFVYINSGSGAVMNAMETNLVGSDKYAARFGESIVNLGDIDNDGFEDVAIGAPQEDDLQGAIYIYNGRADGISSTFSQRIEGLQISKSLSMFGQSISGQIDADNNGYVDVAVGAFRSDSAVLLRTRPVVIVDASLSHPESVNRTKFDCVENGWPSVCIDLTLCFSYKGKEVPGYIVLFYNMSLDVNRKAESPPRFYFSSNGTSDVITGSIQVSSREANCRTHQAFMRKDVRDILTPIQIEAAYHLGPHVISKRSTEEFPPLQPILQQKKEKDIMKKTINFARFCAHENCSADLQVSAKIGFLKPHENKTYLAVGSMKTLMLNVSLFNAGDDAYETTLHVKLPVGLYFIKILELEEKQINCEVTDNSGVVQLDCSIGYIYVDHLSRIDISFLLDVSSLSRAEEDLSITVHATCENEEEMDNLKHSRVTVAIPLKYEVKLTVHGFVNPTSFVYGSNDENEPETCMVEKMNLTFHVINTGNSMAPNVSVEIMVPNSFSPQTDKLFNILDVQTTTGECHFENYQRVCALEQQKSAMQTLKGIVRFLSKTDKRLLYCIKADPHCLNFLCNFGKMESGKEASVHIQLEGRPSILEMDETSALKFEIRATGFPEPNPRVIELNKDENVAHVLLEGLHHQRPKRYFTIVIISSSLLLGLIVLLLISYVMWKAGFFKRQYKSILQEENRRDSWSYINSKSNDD
T1 sequence (P05556 21-798): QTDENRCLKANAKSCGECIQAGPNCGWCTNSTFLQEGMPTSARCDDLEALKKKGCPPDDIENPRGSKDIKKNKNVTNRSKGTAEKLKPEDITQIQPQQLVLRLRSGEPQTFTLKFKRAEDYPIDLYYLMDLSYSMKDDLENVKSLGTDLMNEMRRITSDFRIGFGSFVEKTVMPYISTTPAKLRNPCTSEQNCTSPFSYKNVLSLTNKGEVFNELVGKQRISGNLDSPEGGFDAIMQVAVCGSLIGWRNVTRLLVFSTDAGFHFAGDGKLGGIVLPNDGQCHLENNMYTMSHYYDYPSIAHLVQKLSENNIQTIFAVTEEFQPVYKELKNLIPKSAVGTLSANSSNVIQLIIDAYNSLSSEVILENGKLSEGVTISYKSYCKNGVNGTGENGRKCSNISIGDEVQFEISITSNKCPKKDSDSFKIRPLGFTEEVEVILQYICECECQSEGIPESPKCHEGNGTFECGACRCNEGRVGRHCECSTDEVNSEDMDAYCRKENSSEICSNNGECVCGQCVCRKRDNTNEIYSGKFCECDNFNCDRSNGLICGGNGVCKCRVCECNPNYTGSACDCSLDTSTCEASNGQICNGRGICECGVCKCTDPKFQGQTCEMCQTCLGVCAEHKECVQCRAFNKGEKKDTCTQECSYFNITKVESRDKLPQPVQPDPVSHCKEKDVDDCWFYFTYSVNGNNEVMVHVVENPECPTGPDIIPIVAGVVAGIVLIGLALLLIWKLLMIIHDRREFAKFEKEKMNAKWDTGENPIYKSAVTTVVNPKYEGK

Row | Compound | Ki (hα4 and β1 integrins) [nM] | IC50 (hα4 and β1 integrins) [nM] | solubility [2, 3] [µg/mL] | solubility [2, 4] [µg/mL] | inhibition in vivo at 5 mg/kg [1] [%] | Average total eosinophile count (×10^5) of (ascaris-sensitized + substance under test) group [1]
1 | C[C@@H]1CN([C@H]2C[C@@H](CO[C@H]3CC[C@H](C(=O)O)CC3)N(C(=O)Cc3cc(Cl)c(NC(=O)c4cn(C)c5ccccc45)cc3Cl)C2)C[C@H](C)O1 [Example 80, Trans-4-[1-[[2,5-dichloro-4-[(1-methyl-1H-indol-3-ylcarbonyl)amino]phenyl]acetyl]-(4S)-(cis-2,6-dimethylmorpholin-4-yl)-(2S)-pyrrolidinylmethoxy]cyclohexanecarboxylic acid] | 6.5 | 20 | – | – | 51 | 1.86 ×10^5
2 | C[C@@H]1CN([C@H]2C[C@@H](CO[C@H]3CC[C@H](C(=O)O)CC3)N(C(=O)Cc3ccc(NC(=O)c4nccc5ccccc45)c(Cl)c3)C2)C[C@H](C)O1 [Example 86, Trans-4-[1-[[3-chloro-4-[(isoquinolin-1-ylcarbonyl)amino]phenyl]acetyl]-(4S)-(cis-2,6-dimethylmorpholin-4-yl)-(2S)-pyrrolidinylmethoxy]cyclohexanecarboxylic acid] | 4.5 | 27 | 1300 (≈ 1960 µM) | 1200 (≈ 1810 µM) | – | –
3 | CC(C)N1CCN([C@H]2C[C@@H](CO[C@H]3CC[C@H](C(=O)O)CC3)N(C(=O)Cc3cc(Cl)c(NC(=O)c4cn(C)c5ccccc45)cc3Cl)C2)CC1 [Example 113, Trans-4-[1-[[2,5-dichloro-4-[(1-methyl-1H-indol-3-ylcarbonyl)amino]phenyl]acetyl]-(4S)-(4-isopropylpiperazin-1-yl)-(2S)-pyrrolidinylmethoxy]cyclohexanecarboxylic acid] | 2.8 | 9.5 | 1000 (≈ 1400 µM) | 1000 (≈ 1400 µM) | – | –
4 | Cn1cc(C(=O)Nc2cc(F)c(CC(=O)N3C[C@@H](N4CCN(CC(F)(F)F)CC4)C[C@H]3CO[C@H]3CC[C@H](C(=O)O)CC3)cc2Cl)c2ccccc21 [Example 124, Trans-4-[1-[[5-chloro-2-fluoro-4-[(1-methyl-1H-indol-3-ylcarbonyl)amino]phenyl]acetyl]-(4S)-[4-(2,2,2-trifluoroethyl)piperazin-1-yl]-(2S)-pyrrolidinylmethoxy]cyclohexanecarboxylic acid] | 4.9 | 17 | – | – | 63 | 1.72 ×10^5
5 | C[C@@H]1CN([C@H]2C[C@@H](CO[C@H]3CC[C@H](C(=O)O)CC3)N(C(=O)Cc3cc(Cl)c(NC(=O)c4cn(C)c5ccccc45)cc3F)C2)C[C@H](C)N1CCF [Example 147, Trans-4-[1-[[5-chloro-2-fluoro-4-[(1-methyl-1H-indol-3-ylcarbonyl)amino]phenyl]acetyl]-(4S)-[cis-2,6-dimethyl-1-(2-fluoroethyl)piperazin-4-yl]-(2S)-pyrrolidinylmethoxy]cyclohexanecarboxylic acid] | 3.2 | 12 | 1400 (≈ 1920 µM) | 1400 (≈ 1920 µM) | – | –
6 | Cn1cc(C(=O)Nc2cc(Cl)c(CC(=O)N3C[C@@H](N4CC5CC4CN5C4CC4)C[C@H]3CO[C@H]3CC[C@H](C(=O)O)CC3)cc2Cl)c2ccccc21 (stereo partly drawn) [Example 164, Trans-4-[1-[[2,5-dichloro-4-[(1-methyl-1H-indol-3-ylcarbonyl)amino]phenyl]acetyl]-(4S)-[(1S,4S)-2-cyclopropyl-2,5-diazabicyclo[2.2.1]heptan-5-yl]-(2S)-pyrrolidinylmethoxy]cyclohexanecarboxylic acid] | 13 | 71 | 1000 (≈ 1380 µM) | 1000 (≈ 1380 µM) | – | –
7 | Cn1cc(C(=O)Nc2cc(Cl)c(CC(=O)N3C[C@@H](N4CCCOCC4)C[C@H]3CO[C@H]3CC[C@H](C(=O)O)CC3)cc2Cl)c2ccccc21 [Example 165, Trans-4-[1-[[2,5-dichloro-4-[(1-methyl-1H-indol-3-ylcarbonyl)amino]phenyl]acetyl]-(4S)-([1,4]-oxazepan-4-yl)-(2S)-pyrrolidinylmethoxy]cyclohexanecarboxylic acid] | 8.2 | 12 | > 2000 | > 2000 | – | –

Second part, led by results:

Row | Ki (hα4 and β1 integrins) [nM] | IC50 (hα4 and β1 integrins) [nM] | solubility [2, 3] [µg/mL] | solubility [2, 4] [µg/mL] | Compound | inhibition in vivo at 5 mg/kg [1] [%] | Average total eosinophile count (×10^5) of (ascaris-sensitized + substance under test) group [1]
8 | 2.8 | 15 | – | – | Cn1cc(C(=O)Nc2cc(F)c(CC(=O)N3C[C@@H](N4C[C@H]5COC[C@H]5C4)C[C@H]3CO[C@H]3CC[C@H](C(=O)O)CC3)cc2Cl)c2ccccc21 [Example 72] | 70 | 1.41 ×10^5
9 | 0.95 | 8.1 | 1200 (≈ 1840 µM) | 1200 (≈ 1840 µM) | C[C@@H]1CN([C@H]2C[C@@H](CO[C@H]3CC[C@H](C(=O)O)CC3)N(C(=O)Cc3ccc(NC(=O)c4coc5ccccc45)c(Cl)c3)C2)C[C@H](C)O1 [Example 87, Trans-4-[1-[[4-[(benzo[b]furan-3-ylcarbonyl)amino]-3-chlorophenyl]acetyl]-(4S)-(cis-2,6-dimethylmorpholin-4-yl)-(2S)-pyrrolidinylmethoxy]cyclohexanecarboxylic acid] | – | –
10 | 1.5 | 9 | 1100 (≈ 1650 µM) | 1300 (≈ 1950 µM) | C[C@@H]1CN([C@H]2C[C@@H](CO[C@H]3CC[C@H](C(=O)O)CC3)N(C(=O)Cc3ccc(NC(=O)c4nn(C)c5ccccc45)c(Cl)c3)C2)C[C@H](C)O1 [Example 88, Trans-4-[1-[[3-chloro-4-[(1-methyl-1H-indazol-3-ylcarbonyl)amino]phenyl]acetyl]-(4S)-(cis-2,6-dimethylmorpholin-4-yl)-(2S)-pyrrolidinylmethoxy]cyclohexanecarboxylic acid] | – | –
11 | 0.93 | 2.9 | – | – | O=C(Nc1cc(F)c(CC(=O)N2C[C@@H](N3CCCCC3)C[C@H]2CO[C@H]2CC[C@H](C(=O)O)CC2)cc1Cl)c1csc2ccccc12 [Example 94, Trans-4-[1-[[4-[(benzo[b]thiophen-3-ylcarbonyl)amino]-5-chloro-2-fluorophenyl]acetyl]-(4S)-(piperidin-1-yl)-(2S)-pyrrolidinylmethoxy]cyclohexanecarboxylic acid] | 59 | 1.24 ×10^5
12 | 0.34 | 3.8 | > 2000 | 1020 (≈ 1450 µM) | COCC1CCN([C@H]2C[C@@H](CO[C@H]3CC[C@H](C(=O)O)CC3)N(C(=O)Cc3cc(Cl)c(NC(=O)c4csc5ccccc45)cc3F)C2)CC1 [Example 99, Trans-4-[1-[[4-[(benzo[b]thiophen-3-ylcarbonyl)amino]-5-chloro-2-fluorophenyl]acetyl]-(4S)-[(4-methoxymethyl)piperidin-1-yl]-(2S)-pyrrolidinylmethoxy]cyclohexanecarboxylic acid] | – | –
13 | 0.32 | 2.2 | > 2000 | 1360 (≈ 1990 µM) | COC1CCN([C@H]2C[C@@H](CO[C@H]3CC[C@H](C(=O)O)CC3)N(C(=O)Cc3cc(Cl)c(NC(=O)c4csc5ccccc45)cc3F)C2)CC1 [Example 103, Trans-4-[1-[[4-[(benzo[b]thiophen-3-ylcarbonyl)amino]-5-chloro-2-fluorophenyl]acetyl]-(4S)-(4-methoxypiperidin-1-yl)-(2S)-pyrrolidinylmethoxy]cyclohexanecarboxylic acid] | – | –
14 | 1.2 | 9.2 | > 2000 | 1580 (≈ 2310 µM) | CO[C@@H]1CCCN([C@H]2C[C@@H](CO[C@H]3CC[C@H](C(=O)O)CC3)N(C(=O)Cc3cc(Cl)c(NC(=O)c4csc5ccccc45)cc3F)C2)C1 [Example 106, Trans-4-[1-[[4-[(benzo[b]thiophen-3-ylcarbonyl)amino]-5-chloro-2-fluorophenyl]acetyl]-(4S)-[(3R)-methoxypiperidin-1-yl]-(2S)-pyrrolidinylmethoxy]cyclohexanecarboxylic acid] | – | –
15 | 1.8 | 7.6 | 1200 (≈ 1650 µM) | 1200 (≈ 1650 µM) | CN(C)C(=O)C1CCN([C@H]2C[C@@H](CO[C@H]3CC[C@H](C(=O)O)CC3)N(C(=O)Cc3cc(Cl)c(NC(=O)c4coc5ccccc45)cc3Cl)C2)CC1 [Example 107, Trans-4-[1-[[4-[(benzo[b]furan-3-ylcarbonyl)amino]-2,5-dichlorophenyl]acetyl]-(4S)-[4-(dimethylcarbamoyl)piperidin-1-yl]-(2S)-pyrrolidinylmethoxy]cyclohexanecarboxylic acid] | – | –
16 | 0.25 | 30 | > 2000 | > 2000 | O=C(Nc1cc(F)c(CC(=O)N2C[C@@H](N3CCC(N4CCOCC4)CC3)C[C@H]2CO[C@H]2CC[C@H](C(=O)O)CC2)cc1Cl)c1csc2ccccc12 [Example 110, Trans-4-[1-[[4-[(benzo[b]thiophen-3-ylcarbonyl)amino]-5-chloro-2-fluorophenyl]acetyl]-(4S)-[4-(morpholin-4-yl)piperidin-1-yl]-(2S)-pyrrolidinylmethoxy]cyclohexanecarboxylic acid] | – | –
